Measured values reported in ChEMBL document CHEMBL1136666, “Indanyl piperazines as melatonergic MT2 selective agents” (Bioorg Med Chem Lett, 2003).

What was measured:
[1] = molecular target: Melatonin receptor type 1A (Homo sapiens, UniProt P48039); test: In vitro receptor binding at MT1 (Melatonin) receptor.
[2] = molecular target: T1, Melatonin receptor type 1B (Homo sapiens, UniProt P49286); test: In vitro receptor binding at MT2 (Melatonin) receptor.
T1 sequence (P49286 whole entry): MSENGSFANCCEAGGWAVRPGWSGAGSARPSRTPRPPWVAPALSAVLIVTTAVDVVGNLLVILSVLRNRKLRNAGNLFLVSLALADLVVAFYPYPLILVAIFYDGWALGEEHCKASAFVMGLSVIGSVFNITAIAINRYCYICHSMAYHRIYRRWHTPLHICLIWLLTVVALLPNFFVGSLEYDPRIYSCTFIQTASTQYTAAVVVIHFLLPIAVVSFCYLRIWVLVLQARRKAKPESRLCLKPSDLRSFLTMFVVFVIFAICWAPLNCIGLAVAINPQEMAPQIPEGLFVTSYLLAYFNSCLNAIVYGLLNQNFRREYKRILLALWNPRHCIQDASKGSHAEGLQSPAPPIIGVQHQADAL

[3] = molecular target: T1, Melatonin receptor type 1B; test: Effective concentration against human MT2 (Melatonin) receptor stably expressed in NIH3T3 cells in adenylyl cyclase assay; assay type: functional, cell-based

Sequence of Melatonin receptor type 1A (P48039 whole entry): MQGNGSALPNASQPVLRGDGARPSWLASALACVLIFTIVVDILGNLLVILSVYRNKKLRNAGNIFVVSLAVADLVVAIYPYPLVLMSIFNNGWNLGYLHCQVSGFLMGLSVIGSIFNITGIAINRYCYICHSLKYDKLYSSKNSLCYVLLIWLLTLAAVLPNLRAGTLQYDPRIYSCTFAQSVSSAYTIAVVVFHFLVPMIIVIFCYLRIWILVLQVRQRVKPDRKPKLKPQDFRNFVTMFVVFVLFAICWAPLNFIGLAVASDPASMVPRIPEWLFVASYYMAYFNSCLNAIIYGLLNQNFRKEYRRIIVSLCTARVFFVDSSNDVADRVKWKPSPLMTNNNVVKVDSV

Row | IC50 [1] [nM] | IC50 [2] [nM] | EC50 [3] [nM] | Compound
1 | > 1000 | > 1000 | – | COc1ccc2c(c1)[C@@H](N1CCN(C(=O)C(C)C)CC1)CC2
2 | > 1000 | 32 | – | CCC(=O)N1CCN(C2CCc3ccc(OC)cc32)CC1 (stereo unspecified)
3 | > 1000 | 94 | – | CCNC(=O)N1CCN(C2CCCc3ccc(OC)cc32)CC1 (stereo unspecified)
4 | > 1000 | 103 | – | CCCCC(=O)N1CCN(C2CCc3ccc(OC)cc32)CC1 (stereo unspecified)
5 | > 1000 | 2.3 | – | CCCC(=O)N1CCN(C2CCc3ccc(OC)cc32)CC1 (stereo unspecified)
6 | > 1000 | > 1000 | – | COc1ccc2c(c1)[C@@H](N1CCN(C(=O)C3CC3)CC1)CC2
7 | > 1000 | 224 | – | COc1ccc(F)c(CN2CCN(C(=O)C(C)C)CC2)c1
8 | 160 | 1.5 | – | COc1ccc2c(c1)C(N1CCN(C(=O)C(C)C)CC1)CC2 (stereo unspecified)
9 | > 1000 | > 1000 | – | CCNC(=O)N1CCN([C@H]2CCc3ccc(OC)cc32)CC1
10 | > 1000 | 90 | – | COc1ccc2cccc(N3CCN(C(=O)C4CC4)CC3)c2c1
11 | 44.5 | 1.6 | – | COc1ccc2c(c1)[C@H](N1CCN(C(=O)C3CC3)CC1)CC2

Continued, compound first:

Row | Compound | IC50 [1] [nM] | IC50 [2] [nM] | EC50 [3] [nM]
12 | COc1ccc(F)c(CN2CCN(C(C)=O)CC2)c1 | > 1000 | > 1000 | –
13 | CCNC(=O)N1CCN([C@@H]2CCc3ccc(OC)cc32)CC1 | 200 | 1.7 | 2.4
14 | CCNC(=O)N1CCN(C2CCc3ccc(OC)cc32)CC1 (stereo unspecified) | > 1000 | 3.1 | –
15 | COc1ccc2c(c1)C(N1CCN(C(C)=O)CC1)CC2 (stereo unspecified) | > 1000 | 44 | –
16 | COc1ccc2c(c1)C(N1CCN(C(=O)C3CC3)CC1)CCC2 (stereo unspecified) | > 1000 | 75 | –
17 | COc1ccc2c(c1)[C@H](N1CCN(C(=O)C(C)C)CC1)CC2 | 116 | 1.5 | –
18 | COc1ccc(F)c(CN2CCN(C(=O)C3CC3)CC2)c1 | > 1000 | 270 | –
19 | CCNC(=O)N1CCN(c2cccc3ccc(OC)cc23)CC1 | > 1000 | > 1000 | –
20 | COc1ccc2c(c1)C(N1CCN(C(=O)C3CC3)CC1)CC2 (stereo unspecified) | 156 | 3 | –
